# Laboratory results taken from patent EP3468532B1, “DISPENSING DEVICE AND PHARMACEUTICAL COMPOSITION FOR THE TREATMENT OF RHINITIS” (Glenmark Specialty S.A., priority 2017, dated 2019).
# Like-named read-outs stand apart in the source and are kept apart here.
# Experiments:
# [1] = Example 11: single-dose cross-over study, pharmacokinetics of mometasone furoate; format: in vivo, human
# Experimental: The pharmacokinetics of mometasone furoate in a fixed dose combination of mometasone furoate and olopatadine hydrochloride nasal spray was evaluated in a clinical trial. The clinical trial was a randomized, single-center, single-dose, open-label, three-period, six-sequence, cross-over study to evaluate three treatments administered by nasal spray. The three treatments included a combination of mometasone furoate and olopatadine hydrochloride nasal spray, mometasone furoate nasal spray and Nasonex® nasal spray.
# (§1) The study consisted of a screening visit, 3 single-dose treatment periods with washout periods of 7 to 14 days between dosing in each treatment period, an early withdrawal visit if applicable, and a follow-up telephone call (or visit) 1 to 7 days after completing the third treatment period.
# (§2) A total of 30 subjects were randomized to 1 of 6 treatment sequences and received at least 1 dose of study drug. All 30 subjects were included in the safety analysis set and the pharmacokinetic subset. All but 2 subjects completed the study per protocol.
# [2] = Example 7: Phase III clinical study, plasma pharmacokinetics of TP-1; format: in vivo, human; conditions: for AUC / Cmax / Tmax: human, plasma; for Tmax: read-out: Tmax, Median (range)
# Text: This study consisted of four visits to the study site. After the initial screening visit (Visit 1), subjects who met all study selection criteria were required to undergo a single-blind placebo run-in period for 7-10 days. Following the completion of the run-in period, eligible subjects meeting the randomization criteria were enrolled and randomized to one of the four treatment arms. Subjects were dispensed medication as per the randomization list. Randomized subjects were required to undergo a 2 week (14 days) treatment period as per the protocol to assess the efficacy and safety of the assigned treatment. Subjects were instructed to record the symptom scores in a symptom assessment diary. They were also scheduled to have at least two blood samples for PK assessment during the treatment period.
# • Plasma PK: Maximum plasma concentration (Cmax), time to attain Cmax (Tmax), and area under the plasma concentration-time curve over the dosing interval (AUCtau) will be estimated for mometasone furoate and olopatadine on Day 1 and Day 8 based on the pharmacokinetic analysis set (PKAS).
# The pharmacokinetics (PK) of TP-1 were measured for a subset of patients in the phase III clinical study on day 1 and day 8 (steady state).
# [3] = human, in vivo
# Experimental: The pharmacokinetics of olopatadine in a fixed dose combination of mometasone furoate and olopatadine hydrochloride nasal spray was evaluated in a clinical trial. The clinical trial was a randomized, single-center, single-dose, open-label, three-period, six-sequence, cross-over study to evaluate three treatments administered as a nasal spray. The three treatments included a combination of mometasone furoate and olopatadine hydrochloride nasal spray, olopatadine hydrochloride nasal spray and PATANASE® nasal spray.
# as §1, §2
# [4] = human, in vivo, inhaled or intranasal, mometasone furoate in fixed dose combination nasal spray, single dose
# [5] = patients receiving TP-1, Day 8 (steady state)
compound,measurement,setting,value
C[C@@H]1C[C@H]2[C@@H]3CCC4=CC(=O)C=C[C@]4(C)[C@@]3(Cl)[C@@H](O)C[C@]2(C)[C@@]1(OC(=O)c1ccco1)C(=O)CCl [Mometasone furoate],AUC(0-t),[1]; [4],0.085 ng·h/mL
same,Cmax,[1]; [4],0.0108 ng/mL
same,Tmax,[1]; [4],1 h
same,AUC(0-inf),"[1]; human, in vivo, inhaled or intranasal, mometasone furoate in fixed dose combination nasal spray, single dose, read-out: AUC(0-infinity)",0.104 ng·h/mL
same,Quantifiable concentrations observed until the last time point,[1]; single dose nasal spray,72 h
same,AUC,"[2]; mometasone furoate in plasma, patients receiving TP-1, Day 1, read-out: AUCtau, Geo Mean (Geo CV%)",0.0262 ng·h/mL
same,AUC,"[2]; mometasone furoate in plasma, patients receiving TP-1, Day 1, read-out: AUCtau, Mean (SD)",0.0286 ng·h/mL
same,AUC,"[2]; mometasone furoate in plasma, patients receiving TP-1, Day 1, read-out: AUCtau, Min-Max",0.0121 to 0.0725 ng·h/mL
same,Cmax,"[2]; mometasone furoate in plasma, patients receiving TP-1, Day 1, read-out: Cmax, Geo Mean (Geo CV%)",0.00627 ng/mL
same,Cmax,"[2]; mometasone furoate in plasma, patients receiving TP-1, Day 1, read-out: Cmax, Mean (SD)",0.00678 ng/mL
same,Cmax,"[2]; mometasone furoate in plasma, patients receiving TP-1, Day 1, read-out: Cmax, Min-Max",0.00267 to 0.0128 ng/mL
same,AUC,"[2]; mometasone furoate in plasma, patients receiving TP-1, Day 8 (steady state), read-out: AUCtau, Geo Mean (Geo CV%)",0.0527 ng·h/mL
same,AUC,"[2]; mometasone furoate in plasma, patients receiving TP-1, Day 8 (steady state), read-out: AUCtau, Mean (SD)",0.0584 ng·h/mL
same,AUC,"[2]; mometasone furoate in plasma, patients receiving TP-1, Day 8 (steady state), read-out: AUCtau, Min-Max",0.0257 to 0.124 ng·h/mL
same,Cmax,"[2]; mometasone furoate in plasma, patients receiving TP-1, Day 8 (steady state), read-out: Cmax, Geo Mean (Geo CV%)",0.00917 ng/mL
same,Cmax,"[2]; mometasone furoate in plasma, patients receiving TP-1, Day 8 (steady state), read-out: Cmax, Mean (SD)",0.00992 ng/mL
same,Cmax,"[2]; mometasone furoate in plasma, patients receiving TP-1, Day 8 (steady state), read-out: Cmax, Min-Max",0.00358 to 0.0161 ng/mL
same,Tmax,"[2]; patients receiving TP-1, Day 1",1 h
same,"Tmax, Median (range)",[2]; [5],1.00 (0.25-2) hour
CN(C)CC/C=C1/c2ccccc2COc2ccc(CC(=O)O)cc21 [Olopatadine],Quantifiable concentrations observed until the last time point,[3],48 h
same,AUC,"[2]; olopatadine in plasma, patients receiving TP-1, Day 1, read-out: AUCtau, Geo Mean (Geo CV%)",72.9 ng·h/mL
same,AUC,"[2]; olopatadine in plasma, patients receiving TP-1, Day 1, read-out: AUCtau, Mean (SD)",75.5 ng·h/mL
same,AUC,"[2]; olopatadine in plasma, patients receiving TP-1, Day 1, read-out: AUCtau, Min-Max",39.3 to 117 ng·h/mL
same,Cmax,"[2]; olopatadine in plasma, patients receiving TP-1, Day 1, read-out: Cmax, Geo Mean (Geo CV%)",18.8 ng/mL
same,Cmax,"[2]; olopatadine in plasma, patients receiving TP-1, Day 1, read-out: Cmax, Mean (SD)",19.8 ng/mL
same,Cmax,"[2]; olopatadine in plasma, patients receiving TP-1, Day 1, read-out: Cmax, Min-Max",8.7 to 31.6 ng/mL
same,AUC,"[2]; olopatadine in plasma, patients receiving TP-1, Day 8 (steady state), read-out: AUCtau, Geo Mean (Geo CV%)",85.7 ng·h/mL
same,AUC,"[2]; olopatadine in plasma, patients receiving TP-1, Day 8 (steady state), read-out: AUCtau, Mean (SD)",88.8 ng·h/mL
same,AUC,"[2]; olopatadine in plasma, patients receiving TP-1, Day 8 (steady state), read-out: AUCtau, Min-Max",53.4 to 138 ng·h/mL
same,Cmax,"[2]; olopatadine in plasma, patients receiving TP-1, Day 8 (steady state), read-out: Cmax, Geo Mean (Geo CV%)",18.7 ng/mL
same,Cmax,"[2]; olopatadine in plasma, patients receiving TP-1, Day 8 (steady state), read-out: Cmax, Mean (SD)",19.8 ng/mL
same,Cmax,"[2]; olopatadine in plasma, patients receiving TP-1, Day 8 (steady state), read-out: Cmax, Min-Max",9.67 to 37.3 ng/mL
same,Tmax,"[2]; patients receiving TP-1, Day 1",1 h
same,"Tmax, Median (range)",[2]; [5],1.00 (0.25-2) hour
